According to patent US10369119B2 (priority 2015, dated 2019):
Entries after “also recorded” stand apart in the source; their conditions may differ.

Assays:
[1] = tested on: Pseudomonas aeruginosa exotoxin A (PE)-mediated cytotoxicity in RAW264.7 cells
[2] = tested on: Diphtheria toxin-mediated cytotoxicity in C32 cells
[3] = tested on: cholera toxin-mediated cytotoxicity in RAW264.7 cells
caspase-3 [4] = biological target: T1, caspase-3 (Mus musculus, UniProt P70677); experiment: biochemical; format: biochemical
T1 construct: Caspases were induced in RAW264.7 by treating cells with 2 μg/ml of PE for 4 hours; endogenous in cells; host or cells: RAW264.7 (lysate after PE treatment)
T1 sequence (P70677 29-175 limits assumed): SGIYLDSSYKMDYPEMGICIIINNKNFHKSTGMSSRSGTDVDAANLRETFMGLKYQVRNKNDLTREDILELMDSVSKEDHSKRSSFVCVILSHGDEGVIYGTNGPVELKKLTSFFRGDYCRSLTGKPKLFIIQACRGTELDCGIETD
T1 sequence (P70677 176-277 limits assumed): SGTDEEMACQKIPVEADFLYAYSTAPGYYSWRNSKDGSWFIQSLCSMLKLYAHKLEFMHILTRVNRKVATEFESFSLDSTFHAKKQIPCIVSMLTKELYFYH

[5] = tested on: botulinum neurotoxin serotype A complex (BoNT/A); design: species or system Swiss Webster (CFW) mice; conditions: mouse, in vivo
Senegal ZIKV [6] = experiment: Zika virus high content imaging infection assay, Senegal strain DAK AR D 41525 in human astrocytes; format: cell-based; conditions: Astrocyte, 2 hours pretreatment, MOI 15, 48 hours, read-out: EC50 for inhibition of abundance of Senegal ZIKV in human astrocytes
BoNT/A light chain = BoNT/A light chain (Clostridium botulinum, UniProt P0DPI0); format: biochemical
BoNT/A light chain, sequence (P0DPI0 2-448 limits assumed): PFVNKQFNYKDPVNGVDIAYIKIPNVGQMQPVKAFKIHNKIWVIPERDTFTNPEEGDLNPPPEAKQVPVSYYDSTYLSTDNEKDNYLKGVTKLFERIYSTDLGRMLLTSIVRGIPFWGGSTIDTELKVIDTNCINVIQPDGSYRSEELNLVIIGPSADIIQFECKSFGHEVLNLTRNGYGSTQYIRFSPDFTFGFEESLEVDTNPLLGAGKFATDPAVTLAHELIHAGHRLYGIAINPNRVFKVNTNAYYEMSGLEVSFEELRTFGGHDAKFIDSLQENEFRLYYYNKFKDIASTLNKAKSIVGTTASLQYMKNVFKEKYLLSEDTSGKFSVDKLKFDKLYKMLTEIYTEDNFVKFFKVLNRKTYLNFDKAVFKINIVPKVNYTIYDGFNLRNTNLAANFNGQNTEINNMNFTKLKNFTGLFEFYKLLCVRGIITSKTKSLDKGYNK

anthrax LF toxin = anthrax LF toxin (Bacillus anthracis, UniProt P15917); format: cell-based
anthrax LF toxin, sequence (P15917 34-809 limits assumed): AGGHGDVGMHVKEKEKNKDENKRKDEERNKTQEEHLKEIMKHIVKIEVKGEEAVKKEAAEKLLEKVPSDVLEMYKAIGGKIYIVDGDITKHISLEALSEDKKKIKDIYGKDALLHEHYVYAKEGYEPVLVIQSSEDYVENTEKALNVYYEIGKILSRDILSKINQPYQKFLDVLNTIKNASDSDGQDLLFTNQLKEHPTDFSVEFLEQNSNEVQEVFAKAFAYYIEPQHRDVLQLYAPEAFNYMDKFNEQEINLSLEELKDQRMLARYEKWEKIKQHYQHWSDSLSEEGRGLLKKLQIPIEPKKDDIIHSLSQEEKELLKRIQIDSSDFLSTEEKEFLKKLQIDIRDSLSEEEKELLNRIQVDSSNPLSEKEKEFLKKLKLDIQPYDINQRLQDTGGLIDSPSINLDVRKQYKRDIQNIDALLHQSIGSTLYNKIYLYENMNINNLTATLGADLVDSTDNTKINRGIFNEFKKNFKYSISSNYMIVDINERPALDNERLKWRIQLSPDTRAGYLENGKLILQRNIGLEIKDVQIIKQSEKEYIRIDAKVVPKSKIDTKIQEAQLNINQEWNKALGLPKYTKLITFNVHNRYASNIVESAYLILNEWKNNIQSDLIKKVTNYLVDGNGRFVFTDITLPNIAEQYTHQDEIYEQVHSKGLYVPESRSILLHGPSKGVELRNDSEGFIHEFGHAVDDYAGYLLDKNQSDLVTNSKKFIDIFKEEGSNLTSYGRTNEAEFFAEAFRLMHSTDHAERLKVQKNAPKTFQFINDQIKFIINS

caspase-6 [7] = biological target: T2, caspase-6 (Homo sapiens, UniProt P55212); format: biochemical
T2 construct: purchased BioVision
T2 sequence (P55212 24-179 limits assumed): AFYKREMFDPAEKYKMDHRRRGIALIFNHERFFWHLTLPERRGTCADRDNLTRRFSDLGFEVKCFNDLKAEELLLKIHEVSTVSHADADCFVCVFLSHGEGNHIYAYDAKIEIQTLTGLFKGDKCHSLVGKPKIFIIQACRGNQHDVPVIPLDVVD
T2 sequence (P55212 194-293 limits assumed): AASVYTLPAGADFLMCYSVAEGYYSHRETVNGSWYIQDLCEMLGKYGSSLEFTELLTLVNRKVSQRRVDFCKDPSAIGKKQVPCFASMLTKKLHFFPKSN

cathepsin-B = biological target: T3, cathepsin-B (Mus musculus, UniProt P10605); format: cell-based
T3 construct: Cathepsin B and caspase-1 activities in total cell lysates were determined; endogenous in cells; host or cells: RAW264.7
T3 sequence (P10605 80-333): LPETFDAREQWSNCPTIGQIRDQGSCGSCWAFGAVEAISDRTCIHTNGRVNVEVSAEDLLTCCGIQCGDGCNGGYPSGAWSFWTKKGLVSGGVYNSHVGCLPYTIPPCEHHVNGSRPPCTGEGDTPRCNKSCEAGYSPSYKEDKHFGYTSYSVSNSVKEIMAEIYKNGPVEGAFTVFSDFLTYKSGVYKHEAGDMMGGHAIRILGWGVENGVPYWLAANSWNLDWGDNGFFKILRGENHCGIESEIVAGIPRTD

caspase-1 [8] = biological target: T4, caspase-1 (Homo sapiens, UniProt P29466); format: biochemical
T4 construct: purchased BioVision
T4 sequence (P29466 120-297 limits assumed): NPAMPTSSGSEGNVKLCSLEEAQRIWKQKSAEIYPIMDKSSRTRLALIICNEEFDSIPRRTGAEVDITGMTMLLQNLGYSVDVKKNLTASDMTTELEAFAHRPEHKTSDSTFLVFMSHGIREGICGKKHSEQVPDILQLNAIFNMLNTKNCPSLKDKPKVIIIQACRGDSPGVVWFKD
T4 sequence (P29466 317-404 limits assumed): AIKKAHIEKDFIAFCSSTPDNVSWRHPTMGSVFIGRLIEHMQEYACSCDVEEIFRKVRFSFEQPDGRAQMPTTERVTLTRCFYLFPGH

[9] = tested on: LF-PA-mediated cell killing in RAW264.7 cells; format: cell-based, mouse
caspase-6 [10] = biological target: T5, caspase-6 (Mus musculus, UniProt O08738); experiment: biochemical; format: biochemical
T5 construct: Caspases were induced in RAW264.7 by treating cells with 2 μg/ml of PE for 4 hours; endogenous in cells; host or cells: RAW264.7 (lysate after PE treatment)
T5 sequence (O08738 6-162 limits assumed): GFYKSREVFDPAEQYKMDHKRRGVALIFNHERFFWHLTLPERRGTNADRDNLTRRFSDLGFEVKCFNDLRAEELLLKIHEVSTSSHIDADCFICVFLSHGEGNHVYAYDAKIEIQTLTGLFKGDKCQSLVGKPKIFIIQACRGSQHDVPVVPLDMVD
T5 sequence (O08738 176-276 limits assumed): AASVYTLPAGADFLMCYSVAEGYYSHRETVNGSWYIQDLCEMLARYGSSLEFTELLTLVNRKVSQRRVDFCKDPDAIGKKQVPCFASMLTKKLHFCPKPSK

other caspases = format: biochemical, human
caspase-3/7 = format: biochemical, mouse
Puerto Rico ZIKV = experiment: Zika virus high content imaging infection assay, Puerto Rico strain PRVABC59 in Vero E6 cells; format: cell-based; conditions: Vero C1008, 2 hours pretreatment, MOI 0.5, 48 hours, read-out: EC50 for inhibition of abundance of Puerto Rico ZIKV in Vero E6 cells
caspase-7 = biological target: T6, caspase-7 (Homo sapiens, UniProt P55210); format: biochemical
T6 construct: purchased BioVision
T6 sequence (P55210 24-198 limits assumed): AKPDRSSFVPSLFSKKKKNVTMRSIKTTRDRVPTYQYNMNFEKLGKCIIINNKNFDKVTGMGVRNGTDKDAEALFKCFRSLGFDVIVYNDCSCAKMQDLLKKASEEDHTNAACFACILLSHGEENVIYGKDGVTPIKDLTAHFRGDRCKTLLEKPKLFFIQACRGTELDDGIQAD
T6 sequence (P55210 207-303 limits assumed): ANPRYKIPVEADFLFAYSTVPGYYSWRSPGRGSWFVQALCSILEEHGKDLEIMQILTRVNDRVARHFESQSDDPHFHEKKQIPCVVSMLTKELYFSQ

furin = biological target: T7, furin (Mus musculus, UniProt P23188); format: cell-based
T7 construct: endogenous in cells; host or cells: RAW264.7
T7 sequence (P23188 108-793): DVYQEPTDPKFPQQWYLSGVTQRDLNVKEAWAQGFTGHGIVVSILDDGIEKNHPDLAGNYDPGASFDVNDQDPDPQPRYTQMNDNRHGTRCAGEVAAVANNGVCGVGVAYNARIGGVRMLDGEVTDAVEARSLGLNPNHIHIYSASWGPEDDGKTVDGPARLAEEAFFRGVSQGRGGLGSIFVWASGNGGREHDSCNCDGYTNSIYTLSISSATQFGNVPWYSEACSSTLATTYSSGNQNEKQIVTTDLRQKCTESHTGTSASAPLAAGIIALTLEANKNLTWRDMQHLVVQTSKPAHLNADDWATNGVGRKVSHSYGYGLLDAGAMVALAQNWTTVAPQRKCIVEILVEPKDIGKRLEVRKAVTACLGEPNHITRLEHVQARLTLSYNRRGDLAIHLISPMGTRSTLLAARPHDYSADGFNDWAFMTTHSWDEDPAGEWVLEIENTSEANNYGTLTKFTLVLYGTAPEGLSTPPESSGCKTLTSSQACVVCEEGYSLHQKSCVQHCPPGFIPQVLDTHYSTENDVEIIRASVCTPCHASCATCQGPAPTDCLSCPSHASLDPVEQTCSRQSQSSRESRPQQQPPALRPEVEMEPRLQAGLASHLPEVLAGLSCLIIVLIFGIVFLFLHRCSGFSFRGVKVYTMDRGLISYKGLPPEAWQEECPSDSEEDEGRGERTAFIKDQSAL

caspase-1 [11] = biological target: T8, caspase-1 (Mus musculus, UniProt P29452); format: cell-based
T8 construct: Cathepsin B and caspase-1 activities in total cell lysates were determined; endogenous in cells; host or cells: RAW264.7
T8 sequence (P29452 119-296 limits assumed): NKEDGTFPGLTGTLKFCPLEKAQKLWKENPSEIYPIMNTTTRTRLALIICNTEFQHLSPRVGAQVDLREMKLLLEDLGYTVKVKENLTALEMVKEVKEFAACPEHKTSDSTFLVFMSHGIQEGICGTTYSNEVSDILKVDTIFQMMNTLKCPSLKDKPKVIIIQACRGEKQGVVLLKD
T8 sequence (P29452 315-402 limits assumed): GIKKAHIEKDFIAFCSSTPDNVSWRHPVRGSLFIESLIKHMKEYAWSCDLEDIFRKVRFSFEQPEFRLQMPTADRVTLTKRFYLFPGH

[12] = tested on: PE-sensitive HapMap cells (human B-lymphocytes); format: cell-based
caspase-9 = biological target: T9, caspase-9 (Homo sapiens, UniProt P55211); format: biochemical
T9 construct: purchased BioVision
T9 sequence (P55211 1-315 limits assumed): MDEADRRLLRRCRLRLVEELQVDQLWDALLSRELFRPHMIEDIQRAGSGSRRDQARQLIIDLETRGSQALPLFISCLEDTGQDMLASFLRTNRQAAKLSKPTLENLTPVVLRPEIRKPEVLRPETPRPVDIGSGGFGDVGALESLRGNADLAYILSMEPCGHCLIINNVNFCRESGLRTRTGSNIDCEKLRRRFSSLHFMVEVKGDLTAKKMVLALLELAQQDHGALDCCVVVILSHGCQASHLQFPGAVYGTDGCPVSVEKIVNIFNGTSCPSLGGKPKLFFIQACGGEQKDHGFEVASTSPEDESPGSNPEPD
T9 sequence (P55211 331-416 limits assumed): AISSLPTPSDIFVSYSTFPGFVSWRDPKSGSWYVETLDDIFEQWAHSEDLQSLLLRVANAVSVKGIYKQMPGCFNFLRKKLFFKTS

[13] = tested on: Pseudomonas aeruginosa exotoxin A (PE)-mediated cytotoxicity in RAW264.7 cells; experiment: cells; conditions: Mus musculus, RAW264.7, read-out: EC50 for reduction of Pseudomonas toxin-mediated cytotoxicity
[14] = tested on: Diphtheria toxin-mediated cytotoxicity in C32 cells; experiment: cells; conditions: Homo sapiens, C32, read-out: EC50 for reduction of diphtheria toxin-mediated cytotoxicity
Senegal ZIKV [15] = experiment: Zika virus high content imaging infection assay, Senegal strain DAK AR D 41525 in Vero E6 cells; format: cell-based; conditions: Vero C1008, 2 hours pretreatment, MOI 0.5, 48 hours, read-out: EC50 for inhibition of abundance of Senegal ZIKV in Vero E6 cells
caspase-3 [16] = biological target: T10, caspase-3 (Homo sapiens, UniProt P42574); format: biochemical
T10 construct: purchased BioVision
T10 sequence (P42574 29-175 limits assumed): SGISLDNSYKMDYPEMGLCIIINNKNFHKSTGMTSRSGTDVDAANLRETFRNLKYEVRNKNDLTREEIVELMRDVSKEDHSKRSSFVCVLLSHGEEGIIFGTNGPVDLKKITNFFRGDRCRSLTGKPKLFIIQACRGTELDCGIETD
T10 sequence (P42574 176-277 limits assumed): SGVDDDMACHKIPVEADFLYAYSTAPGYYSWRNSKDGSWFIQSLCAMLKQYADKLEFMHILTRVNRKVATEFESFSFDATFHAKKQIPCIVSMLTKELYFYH

[17] = tested on: cholera toxin-mediated cytotoxicity in RAW264.7 cells; experiment: cells; conditions: Mus musculus, RAW264.7, read-out: EC50 for reduction of cholera toxin-mediated cytotoxicity

Oc1cccc(O)c1O [Pyrogallol]
CCL cellular screen hit: reduction of PE cytotoxicity [1]: capable of reducing the cytotoxicities of all three toxins | CCL cellular screen hit: reduction of diphtheria toxin cytotoxicity [2]: capable of reducing the cytotoxicities of all three toxins | CCL cellular screen hit: reduction of cholera toxin cytotoxicity [3]: capable of reducing the cytotoxicities of all three toxins

Oc1c(Cl)cc(Cl)cc1Sc1cc(Cl)cc(Cl)c1O [Bithionol]
IC50 (caspase-3 [4]): 21 µM | CCL FRET screen hit: reduction of proteolysis of caspase-3 substrate (caspase-3 [4]; 33 μM): capable of prominently reducing the proteolysis of all three caspase substrates | Survival of mice challenged with lethal oral dose of BoNT/A complex [5]: all of the mice | Toxin-associated symptoms (wasp waist, paralysis) in BoNT/A challenged mice [5]: without displaying toxin-associated symptoms | EC50 (Senegal ZIKV [6]): 6.3 µM | Effect on proteolysis rate of fluorescent SNAP-25 substrate by BoNT/A (BoNT/A light chain): did not affect the proteolysis rate | Inhibition of proteolytic activity of cellular LF (MAPKK2 proteolysis) (anthrax LF toxin): does not block proteolysis; also recorded: does not inhibit | Inhibition of purified recombinant human caspase-6 activity (caspase-6 [7]): inhibited activities | Inhibition of proteolytic activity of cellular cathepsin-B (cathepsin-B): does not inhibit | Inhibition of purified recombinant human caspase-1 activity (caspase-1 [8]): inhibited activities | Protection against LF-PA-mediated cell killing [9]: substantial protection | IC50 (caspase-6 [10]): 13 µM | CCL FRET screen hit: reduction of proteolysis of caspase-6 substrate (caspase-6 [10]; 33 μM): capable of prominently reducing the proteolysis of all three caspase substrates | Inhibition of other purified recombinant human caspases (other caspases): no inhibitory effects | CCL FRET screen hit: reduction of proteolysis of caspase-3/7 substrate (caspase-3/7; 33 μM): capable of prominently reducing the proteolysis of all three caspase substrates | IC50 (caspase-3/7; read-out: IC50 for inhibition of proteolytic cleavage of caspase-3/7 substrate): 11 µM | EC50 (Puerto Rico ZIKV): 6.7 µM | Inhibition of purified recombinant human caspase-7 activity (caspase-7): inhibited activities | Inhibition of proteolytic activity of cellular furin (furin): does not inhibit | Caspase-1 induction upon LF-PA treatment (caspase-1 [11]): caspase-1 induction was not detected | Reduction of cellular sensitivity to PE in PE-sensitive HapMap cells [12]: protected three cell lines | Inhibition of purified recombinant human caspase-9 activity (caspase-9): inhibited activities | EC50 [13]: 10 µM | EC50 [14]: 10 µM | EC50 (Senegal ZIKV [15]): 5.5 µM | Inhibition of purified recombinant human caspase-3 activity (caspase-3 [16]): inhibited activities | EC50 [17]: 10 µM
